The record followed here is article PMC8596843, “Platinum Cyclooctadiene Complexes with Activity against Gram‐positive Bacteria” (Chemmedchem, 2021).

In data set [1] the test system is E. faecium ATCC 51559 MDR, VRE. Kind of data set: MIC in the presence of human serum (serum reversal). The settings on record: 10% serum. Type of data set: cell-based, Enterococcus faecium. An excerpt:
(§1) To obtain some initial insight into the apparent disparity between in vitro and in vivo results, we repeated the MIC experiments against four selected Gram‐positive strains in the presence of 10 % or 50 % human serum (Table S3). Pt1 and Pt2 maintained some antibacterial activity against B. subtilis in the presence of 10 % serum, but a complete loss of activity was observed against MRSA and GISA (50 % serum), and VRE (10 % serum). […] Systemic administration is therefore unlikely to be a suitable administration route for this class of compounds unless an alternative formulation that can prevent serum binding (e. g. by lipid or nanoparticle encapsulation) can be found. […] Further in vivo studies should therefore focus on more suitable disease models. […]
(§2) Antibacterial minimum inhibitory concentration (MIC) assay
(§3) concentration. (in-house screening)
(§4) Bacto Laboratories 212322) at 37 °C overnight.
(§5) The resultant mid-log phase cultures were diluted
(§6) Gram-negative and Gram-positive bacteria, respectively.
(§7) final concentration range of 0.8 – 100 µM.
(§8) inhibitors as positive control. […]

Data set [2] relates to B. subtilis ATCC 6051 type strain. Described as above. The settings on record: 10% serum. The class given is cell-based, Bacillus subtilis.
From the text: as §1, §2, §3, §4, §5, §6, §7, §8

The subject of data set [3] is Staphylococcus aureus VRS 1, VRSA (VanA). Kind of data set: Antibacterial MIC assay, Gram-positive panel. The note with it: Table S1 panel; n=4. The class given is cell-based.
From the text: (§9) Bis(dimethyl-η4)-((1Z,1'E,5Z,5'E)-(1,1'-bi(cyclooctadiene))diplatinum(II) (Pt14) Smiles: C1C=CCCC(=CC1)C1=CCCC=CCC1.C[Pt]C.C[Pt]C
(§10) InChIKey: PHIWIZAHOBWKFJ-HPCBIOCFSA-N
(§11) Link to selected data that was repeated to approve the identity of the compounds: https://dx.doi.org/10.14272/PHIWIZAHOBWKFJ-HPCBIOCFSA-N.1
(§12) ATCC strains were sourced from the American Type Culture Collection and NRS strains from NARSA (Network on Antimicrobial Resistance in Staphylococcus aureus) via BEI Resources (www.beiresources.org), with clinical MSSA and MRSA isolates from Prof Graeme Nimmo, Queensland […]
(§13) Health Central Pathology. […]
as §2
(§14) Compound Assay Plate Preparation: Compounds were dissolved in DMSO at 10mM (CO-ADD screening) or 4 mM (follow up screening) and were plated in a 2-fold dose response from 20 to 0.156 µM or 200 to 0.006 µM respectively, with a maximum of 0.5% or 1% DMSO, final in the assay […]
(§15) plated in a 2-fold dose response from 200 to 0.006 µM, with a maximum of 1 % DMSO, final in the assay concentration. (in-house screening)
(§16) For all the bacterial assays, each strain was cultured in Cation-adjusted Mueller Hinton broth (CAMHB; Bacto Laboratories 212322) at 37 °C overnight. A sample of each culture was then diluted 40-fold in fresh CAMHB and incubated at 37 °C for 1.5–3 h. The resultant mid-log phase cultures were diluted with CAMHB (CFU mL−1 measured by OD600), then added to each well of the compound-containing plates (384-well non-binding surface (NBS) plates; Corning CLS3640), giving a cell density of 5 × 10^5 CFU mL−1 and a total volume of 50 μL. Plates were covered and incubated at 37 °C for 18 h without shaking. Inhibition of bacterial growth was determined measuring absorbance at 600 nm (OD600), using media only as negative control and bacteria without inhibitors as positive control. MIC values were determined as the lowest concentration at which the growth was inhibited at ≥80%. Colistin sulfate (Sigma C4461) and vancomycin HCl (Sigma 861987) were used as internal controls on each plate for Gram-negative and Gram-positive bacteria, respectively. […]

For data set [4], the system named is Staphylococcus aureus ATCC 25923, MSSA. Kind of data set: Antibacterial MIC assay, Gram-positive panel. The settings on record: Table S1 panel; n=4. Type of data set: cell-based.
From the text: as §9, §10, §11, §12, §13, §2, §14, §15, §16

A further data set concerns human red blood cells. Kind of data set: Haemolysis assay. The class given is cell-based. The note with it: for Haemolysis HC10: concentration inducing 10 % haemolysis; for Haemolysis HC50: concentration inducing 50 % haemolysis. As to the method: As part of the CO‐ADD screening, all compounds that show any activity against a microbial strain are evaluated for their cytotoxicity against human embryonic kidney cells (HEK‐293) and for haemolysis against human red blood cells. None of the compounds tested for cytotoxicity (Pt1‐9 and Pd1) caused any significant cell death up to concentrations of 100 μM. […] We have also observed higher IC50 values for the methylated complexes Pt3 and Pt4 against HeLa cells in previous work.[16]
as §5, §6, §7
(§17) inhibitors as positive control.
(§18) Tamoxifen (Sigma T5648) was used
(§19) as internal control on each plate.
in a Neubauer haemocytometer.
incubated for 1 h at 37 °C, without shaking.
HC10 and HC50 (concentration at which 10%
for top, bottom and slope using Prism 8. […]

Another data set concerns S. aureus NRS 17 GISA. Kind of data set: MIC in the presence of human serum (serum reversal). The class given is cell-based, Staphylococcus aureus. The settings on record: 50% serum.
From the text: as §1, §2, §3, §4, §5, §6, §7, §8

The test system of data set [5] is S. aureus ATCC 43300 MRSA. The description is as above. The class given is cell-based, Staphylococcus aureus. The note with it: 50% serum.
From the text: as §1, §2, §3, §4, §5, §6, §7, §8

Data set [6] concerns HEK-293 ATCC CRL-1573 human embryonic kidney cells. The class given is cell-based. As to the method:
As part of the CO‐ADD screening, all compounds that show any activity against a microbial strain are evaluated for their cytotoxicity against human embryonic kidney cells (HEK‐293) and for haemolysis against human red blood cells. None of the compounds tested for cytotoxicity (Pt1‐9 and Pd1) caused any significant cell death up to concentrations of 100 μM. […] We have also observed higher IC50 values for the methylated complexes Pt3 and Pt4 against HeLa cells in previous work.[16] […]
as §17, §18, §19
in a Neubauer haemocytometer. […]

In data set [7] the test system is E. coli tolC (efflux pump deficient). Kind of data set: MIC against E. coli membrane mutants. The class given is cell-based, Escherichia coli. The settings on record: Table S2. As to the method: as §2, §3, §4, §5, §6, §7, §8
The subject of data set [8] is E. coli lpxC (non‐efficient lipid A production mutant). Kind of data set: MIC against E. coli membrane mutants. Type of data set: cell-based, Escherichia coli. The note with it: Table S2. As to the method: as §2, §3, §4, §5, §6, §7, §8
For data set [9], the system named is Staphylococcus epidermidis NRS 60, VISE. Kind of data set: Antibacterial MIC assay, Gram-positive panel. Type of data set: cell-based. The note with it: Table S1 panel; n=4. As to the method:
(§20) Smiles: C1C=CCCC(=CC1)C1=CCCC=CCC1.C[Pt]C.C[Pt]C […]
as §12, §13, §2, §14, §15, §16

The subject of data set [10] is Enterococcus faecium ATCC 35667, type strain. Kind of data set: Antibacterial MIC assay, Gram-positive panel. The class given is cell-based. The note with it: Table S1 panel; n=4. As to the method:
as §20, §12, §13, §2, §14, §15, §16

Data set [11] deals with Staphylococcus epidermidis ATCC 14990, type strain. Kind of data set: Antibacterial MIC assay, Gram-positive panel. Type of data set: cell-based. The settings on record: Table S1 panel; n=4. As to the method: as §20, §12, §13, §2, §14, §15, §16
Data set [12] has as its system Enterococcus faecalis Clinical Isolate, VRE (VanB). Kind of data set: Antibacterial MIC assay, Gram-positive panel. The note with it: Table S1 panel; n=4. Type of data set: cell-based. As to the method:
as §20, §12, §13, §2, §14, §15, §16

Data set [13] concerns Candida albicans ATCC 90028. Kind of data set: Antifungal MIC (CO-ADD screening). The class given is cell-based. As to the method:
as §10
(§21) Health Central Pathology. Candida albicans (ATCC 90028, NCCLS 11), Cryptococcus neoformans
as §2, §3, §4

The test system of data set [14] is Cryptococcus neoformans H99 ATCC 208821. Kind of data set: Antifungal MIC (CO-ADD screening). The class given is cell-based. As to the method: as §10, §21, §2, §3, §4
Data set [15] deals with Staphylococcus aureus ATCC 43300 (MRSA). Kind of data set: microbe, parasite or virus in culture. The class given is cell-based. As to the method:
(§22) All compounds submitted to CO‐ADD are initially screened against five bacterial strains (Staphylococcus aureus (MRSA), E. coli, Klebsiella pneumoniae, Pseudomonas aeruginosa, Acinetobacter baumannii) and two fungal strains (Candida albicans, Cryptococcus neoformans) at a single concentration (32 μg/mL or 20 μM) performed as a high‐throughput primary screening.[[11], [17a]] Any compounds that show significant growth inhibition against any of the tested strains at this step are then evaluated in a dose‐response assay against these same strains. […]
as §20, §12, §13, §2, §14, §15, §16

Data set [16] relates to Klebsiella pneumoniae ATCC 700603 (ESBL SHV‐18). As to the method:
as §22, §20, §12, §13, §2, §14, §15, §16

In data set [17] the test system is Escherichia coli ATCC 25922. Kind of data set: Antibacterial MIC assay. The settings on record: CO‐ADD screening. Type of data set: cell-based. As to the method:
as §22, §20, §12, §13, §2, §14, §15, §16

For data set [18], the system named is Pseudomonas aeruginosa ATCC 27853. Kind of data set: Antibacterial MIC assay. The class given is cell-based. The settings on record: CO‐ADD screening. As to the method: as §22, §20, §12, §13, §2, §14, §15, §16
Data set [19] relates to Acinetobacter baumannii ATCC 19606. Kind of data set: Antibacterial MIC assay. Type of data set: cell-based. The note with it: CO‐ADD screening. As to the method: as §22, §20, §12, §13, §2, §14, §15, §16
Data set [20] has as its system Enterococcus faecalis ATCC 29212, control strain. Kind of data set: Antibacterial MIC assay, Gram-positive panel. The note with it: Table S1 panel; n=4. Type of data set: cell-based. As to the method:
as §20, §12, §13, §2, §14, §15, §16

Data set [21] has as its system Enterococcus faecium Clinical Isolate, VRE (VanA). Kind of data set: Antibacterial MIC assay, Gram-positive panel. The class given is cell-based. The settings on record: Table S1 panel; n=4. As to the method:
as §20, §12, §13, §2, §14, §15, §16

For the compound `C1=CCCC=CCC1.[CH3][Pt][CH3]` [Pt3], the MIC in the presence of human serum (in data set [1]; in [2]; with S. aureus NRS 17 GISA; in data set [5]) was greater than 200 µM in each case. The MIC in data set [3] was greater than 200 µM; in data set [4], 50 µM; in [9] it was 25 µM; in [10], 200 µM; in data set [11], 6.25 µM; in [12] it was 200 µM. In addition, the “Haemolysis HC10” value in the data set with human red blood cells was greater than 100 µM. In addition, in the data set on human red blood cells, the “Haemolysis HC50” value is greater than 100 µM. Also, the CC50 in data set [6] is greater than 100 µM. Besides, in data set [7], the MIC E. coli TolC is greater than 200 µM. In data set [8], this compound displayed an MIC E. coli lpxC of 200 µM.

For `C1=CCCC=CCC1.[CH3][Pt][C](F)(C(F)(F)F)C(F)(F)F` [Pt6], the MIC in the presence of human serum (in data set [1]; in data set [2]; with S. aureus NRS 17 GISA; in data set [5]) was greater than 200 µM throughout. Also, the “MIC Ca” value in data set [13] was 20 µM. Besides, the “MIC Cn” value in [14] was 20 µM. For the same compound, the “MIC Sa” value in data set [15] (CO‐ADD screening) was determined as 10 µM. Also, the MIC was 6.25 µM in [15] (Table S1 panel, n=2); 200 µM in data set [3]; 100 µM in data set [4]; greater than 200 µM in data set [20]; 200 µM in data set [9]; greater than 200 µM in data set [10]. Besides, the MIC in [11] is 100 µM; in [12], greater than 200 µM; in [21], 200 µM. Moreover, the “MIC Kp” value in [16] is greater than 20 µM. The “MIC Ec” value in [17] is greater than 20 µM. Moreover, the “MIC Pa” value in [18] is greater than 20 µM. Further, the “MIC Ab” value in data set [19] is greater than 20 µM. Also, the “Haemolysis HC10” value in the data set with human red blood cells was greater than 100 µM. The “Haemolysis HC50” value with human red blood cells was greater than 100 µM. In addition, the CC50 in data set [6] is greater than 100 µM. In data set [7], this compound gave an MIC E. coli TolC greater than 200 µM.

By CC50 is commonly meant the concentration at which the toxic effect on the cells reaches its halfway point.
